Measured values taken from patent publication US20250353835A1, “N-TETRAZOLYL ARYL UREA-BASED DERIVATIVES, PREPARATION METHOD THEREFOR, AND USE THEREOF” (Hangzhou Yirui Pharmaceutical Technology Co., Ltd, priority 2022, published 2025).

Legend:
[1] = system: rat model of diabetic retinopathy; test: Rat model of diabetic retinopathy (STZ); format: in vivo, Wistar rats; details: for retinal leukocyte stasis, Leukocyte count: Concanavalin A/FITC, 14 days after intravitreal injection, compounds 0.25%, dexamethasone 0.1%; for number of leukocyte stasis in the retina (fluorescent staining, FIG. 8; in words) / retinal vascular penetration in rats (fluorescent staining, FIG. 6; in words): intraocular injection, versus model group
Procedure: 3.1 Laboratory animals: SPF-grade male Wistar rats, weighed 180-220 g.
3.3 Animal modeling and grouping: After one week of adaptive feeding, 134 male Wistar rats (weighed 220-260 g) were administered 65 mg/kg of STZ by one-time intraperitoneal injection to prepare a rat model of type I diabetic. The rats were fasting but water was allowable overnight for 15 h. The formulated STZ solution was intraperitoneally injected according to body weight. After 1 h, the diet was resumed and blood glucose was measured at 72 h. The successfully modeled diabetic rats (120 rats) were selected for continued feeding, and randomly divided into the following 6 groups according to blood glucose (20 rats per group), plus a group of normal rats with no STZ injected as a negative control group.
3.4 Administration: The rats continued to be fed until blood glucose was measured once before administration. After blood glucose reached the standard, drugs were intravitreally injected, and indexs were subsequently tested after 14 days. Blood glucose was measured once before sampling.
3.5 Evans blue staining method (7 groups, 6 rats per group): Evans blue was intravenously injected. 2 hours later, normal saline was perfused into the left ventricle. The retina was taken to compare between the stained area and the unstained area to detect retinal vascular permeability.
3.6 Retinal leukocyte stasis detection method (7 groups, 6 rats per group): PBS was perfused into the left ventricle for 1 min to remove red blood cells and other substances. Concanavalin A (FITC (Sigma, C7642) was perfused (20 μg/ml in PBS, 5 mg/kg) to mark adherent leukocytes. 4% PFA was perfused for 4 min for fixation. 1% Albumin (Sigma, A6414) (in PBS) was perfused for 1 min, and then PBS was perfused for 2 min. The retina was taken for retinal wholemount. Thereafter, the stasis of leukocytes on the vascular endothelium was observed under a fluorescence microscope. […]

human B1R = target: T1, human B1R (Homo sapiens, UniProt P46663); test: FLIPR calcium ion flux assay, inhibitory activity against human B1R; format: cell-based; details: HEK293 cells stably expressing human B1R; agonist [Lys-des-Arg9]-Bradykinin 4.6 nM (EC80); FLIPR method
T1 construct: host or cells: HEK293
T1 sequence (P46663 1-353): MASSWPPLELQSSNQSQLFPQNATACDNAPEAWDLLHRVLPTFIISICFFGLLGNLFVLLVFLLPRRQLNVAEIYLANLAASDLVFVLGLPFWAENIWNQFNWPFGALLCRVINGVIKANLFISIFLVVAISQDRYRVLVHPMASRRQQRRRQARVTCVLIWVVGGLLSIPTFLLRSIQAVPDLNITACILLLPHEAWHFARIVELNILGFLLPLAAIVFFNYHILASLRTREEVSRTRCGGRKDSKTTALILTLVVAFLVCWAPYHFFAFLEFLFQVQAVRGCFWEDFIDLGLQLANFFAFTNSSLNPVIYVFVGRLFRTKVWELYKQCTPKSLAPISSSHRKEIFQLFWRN
Procedure: The inhibitory activity of the compounds against human B1R and B2R channels was determined by calcium ion flux assay using fluorometric imaging plate reader (FLIPR method). See literatures of Lee, Chen et al. for the method. [Lee et al. 2008][Chen et al. 2011]
1. Cell culture: HEK293 recombinant cell lines (WuXi AppTec, Shanghai, China) stably expressing human B1R and B2R were cultured in DMEM (Invitrogen, Cat #11965) medium containing 10% calf serum (Excellbio, Cat #FSP500), 5 μg/ml Geneticin (Invitrogen, Cat #10131) and Penicillin/Streptomycin (Invitrogen, Cat #15140). The incubator conditions were 37° C. and ambient humidity containing 5% CO2.
2. Preparation of the cell assay plate: B1R and B2R cells were seeded in a 384-well assay plate (Greiner, Cat #781090) at a density of 20,000 cells per well (20 μl/well), and cultured overnight at 37° C. in an incubator with 5% CO2. The next day, Fluo-4 Direct™ Loading Buffer (containing 5 mM Probenicid) containing 2× (8 μM) Fluo-4 Direct (Invitrogen, Cat #F10471) was added to each of the wells. The cells were cultured at 37° C. for 50 min, and then culture for at the room temperature 10 min.
3. Preparation of the compound assay plate: The compound was dissolved in 100% DMSO to make a 30 mM stock solution and stored at −20° C. On the day of use, the stock solution of the compound was thawed at the room temperature. Each of the compounds was serially diluted at 1:5 in DMSO culture medium with a starting concentration of 30 μM for 9 concentration points on a 384-well plate. Each of compounds was diluted in duplicate for testing. [Des-Arg10]-HOE140 was used as a positive control compound, and diluted in the same manner with a starting concentration of 3 μM.
4. FLIPR assay: The cell assay plate was placed in a FLIPR instrument ([…]). The compounds in the compound assay plate were added to the corresponding wells on the cell assay plate (10 μL/well) using an automatic program. The calcium ion fluorescence signal was recorded to determine whether the compound may have agonist activity. After 10 minutes, a B1R agonist [Lys-des-Arg9]-Bradykinin2 (10 μL/well) with a final concentration of 4.6 nM (EC80) was added to each of the wells to stimulate the generation of intracellular calcium ion flux signals. The Ca^++-dependent fluorescence signal was continuously monitored at a wavelength of 538 nm to analyze the inhibitory activity of the compound.
5. Data analysis: The data was collected and analyzed by a FLIPR program. The inhibitory (or agonist) activity of the compound at each concentration was evaluated by the fluorescence peak. The IC50 values of the compounds were calculated using EXCEL and PRISM programs.

SMILES | IC50 (human B1R) | retinal leukocyte stasis, Leukocyte count [1] | number of leukocyte stasis in the retina (fluorescent staining, FIG. 8; in words) [1] | retinal vascular penetration in rats (fluorescent staining, FIG. 6; in words) [1]
COc1ccc(-c2ccc(NC(=O)N(C)[C@H]3CC[C@H](C(C)(C)C)CC3)cc2-c2nn[nH]n2)cc1OC [Compound 65, 1-((trans)-4-(tert-butyl)cyclohexyl)-3-(3′,4′-dimethoxy-2-(2H-tetrazol-5-yl)-[1,1′-biphenyl]-4-yl)-1-methylurea] | 43.5 nM | 5.14 ± 1.20 | significantly reduced | significantly reduced
CCOC(=O)c1ccc(NC(=O)N2CCC(C)CC2)cc1-c1nn[nH]n1 [Compound 24, ethyl 4-(4-methylpiperidine-1-formamido)-2-(2H-tetrazol-5-yl)benzoate] | 35.7 nM |  |  | 
COc1ccc(Oc2ccc(NC(=O)N[C@H]3CC[C@@H](C)CC3)cc2-c2nn[nH]n2)cc1OC [Compound 63, 1-(4-(3,4-dimethoxyphenoxy)-3-(2H-tetrazol-5-yl)phenyl)-3-((cis)-4-methylcyclohexyl)urea] | 7710 nM |  |  | 
CC1CCN(C(=O)Nc2cc(F)c(C(=O)OC3CCCCC3)c(-c3nn[nH]n3)c2)CC1 [Compound 23, cyclohexyl 2-fluoro-4-(4-methylpiperidine-1-formamido)-6-(2H-tetrazol-5-yl)benzoate] | 44.6 nM |  |  | 
C[C@H]1CC[C@H](NC(=O)Nc2ccc(-c3ccc4c(c3)OCO4)c(-c3nn[nH]n3)c2)CC1 [Compound 69, 1-(4-(benzo[d][1,3]dioxolan-5-yl)-3-(2H-tetrazol-5-yl)phenyl)-3-((trans)-4-methylcyclohexyl)urea] | 4910 nM |  |  | 
COc1ccc(-c2c(F)cc(NC(=O)N3CCC(C)CC3)cc2-c2nn[nH]n2)cc1OC [Compound 20, N-(2-fluoro-3′,4′-dimethoxy-6-(2H-tetrazol-5-yl)-[1,1′-biphenyl]-4-yl)-4-methyl piperidine-1-carboxamide] | 32.3 nM |  |  | 
Cc1ccc(NC(=O)c2c(F)cc(NC(=O)N3CCC(C(C)(C)C)CC3)cc2-c2nn[nH]n2)nc1 [Compound 54, 4-(tert-butyl)-N-(3-fluoro-4-((5-methylpyridin-2-yl)aminoformyl)-5-(2H-tetrazol-5-yl)phenyl)piperidine-1-carboxamide] | 67.9 nM |  |  | 
COc1ccc(-c2ccc(NC(=O)N3CCC4(CCCO4)CC3)cc2-c2nn[nH]n2)cc1OC [Compound 3, N-(3′,4′-dimethoxy-2-(2H-tetrazol-5-yl)-[1,1′-biphenyl]-4-yl)-1-oxy-8-azaspiro[4.5]decane-1-carboxamide] | 1330 nM |  |  | 

The next molecules have a lower IC50 (human B1R) than those just listed; values first:

IC50 (human B1R) | SMILES | retinal leukocyte stasis, Leukocyte count [1] | number of leukocyte stasis in the retina (fluorescent staining, FIG. 8; in words) [1] | retinal vascular penetration in rats (fluorescent staining, FIG. 6; in words) [1]
14.6 nM | COc1ccc(-c2c(F)cc(NC(=O)N3CCC(C(C)(C)C)CC3)cc2-c2nn[nH]n2)cc1OC [Compound 11, 4-(tert-butyl)-N-(2-fluoro-3′,4′-dimethoxy-6-(2H-tetrazol-5-yl)-[1,1′-biphenyl]-4-yl)piperidine-1-carboxamide] | 7.20 ± 8.44 | significantly reduced | significantly reduced
28.2 nM | CCOC(=O)c1ccc(NC(=O)N2CCC(C(C)(C)C)CC2)cc1-c1nn[nH]n1 [Compound 16, ethyl 4-(4-(tert-butyl)piperidine-1-formamido)-2-(2H-tetrazol-5-yl)benzoate] |  |  | 
25.7 nM | Cn1ncc2cc(-c3ccc(NC(=O)N4CCC(C(F)(F)F)CC4)cc3-c3nn[nH]n3)ccc21 [Compound 27, N-(4-(1-methyl-1H-indazol-5-yl)-3-(2H-tetrazol-5-yl)phenyl)-4-(trifluoromethyl)piperidine-1-carboxamide] |  |  | 
8.1 nM | CC(C)(C)c1cn(-c2c(F)cc(NC(=O)N3CCC(C(C)(C)C)CC3)cc2-c2nn[nH]n2)cn1 [Compound 57, 4-(tert-butyl)-N-(4-(4-(tert-butyl)-1H-imidazol-1-yl)-3-fluoro-5-(2H-tetrazol-5-yl)phenyl)piperidine-1-carboxamide] |  |  | 
19.2 nM | CCOc1ccc(-c2c(F)cc(NC(=O)N3CCC(C)CC3)cc2-c2nn[nH]n2)cn1 [Compound 31, N-(4-(6-ethoxypyrid-3-yl)-3-fluoro-5-(2H-tetrazol-5-yl)phenyl)-4-methylpiperidine-1-carboxamide] |  |  | 
26.2 nM | COc1ccc(-c2ccc(NC(=O)N3CCC(C(C)(C)C)CC3)cc2-c2nn[nH]n2)cc1C [Compound 13, 4-(tert-butyl)-N-(4′-methoxy-3′-methyl-2-(2H-tetrazol-5-yl)-[1,1′-biphenyl]-4-yl)piperidine-1-carboxamide] |  |  | 
